Data: patent US6737383B1, “Herbicidal oxadiazolidines” (priority 1999, dated 2004)

Key:
surinam grass = test: Test B pre/postemergence surinam grass; type: in vivo, Brachiaria decumbens
Procedure, shortened: (§1)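 Test chemicals in a non-phytotoxic solvent mixture with surfactant were sprayed preemergence onto planted seeds and postemergence onto plants 2 to 18 cm tall (1- to 4-leaf stage). After twelve to sixteen days in a greenhouse, injury was visually rated against untreated controls from 0 (no effect) to 10 (complete control).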

soybean = test: Test B pre/postemergence soybean; type: in vivo, Glycine max
Procedure, shortened: as §1

blackgrass = test: Test B pre/postemergence blackgrass; type: in vivo, Alopecurus myosuroides
Procedure, shortened: as §1

bedstraw = test: Test B pre/postemergence bedstraw; type: in vivo, Galium aparine
Procedure, shortened: as §1

giant foxtail = test: Test B pre/postemergence giant foxtail; type: in vivo, Setaria faberii
Procedure, shortened: as §1

corn = test: Test B pre/postemergence corn; type: in vivo, Zea mays
Procedure, shortened: as §1

wheat = test: Test B pre/postemergence wheat; type: in vivo, Triticum aestivum
Procedure, shortened: as §1

morningglory = test: Test B pre/postemergence morningglory; type: in vivo, Ipomoea hederacea
Procedure, shortened: as §1

purple nutsedge = test: Test B pre/postemergence purple nutsedge; type: in vivo, Cyperus rotundus
Procedure, shortened: as §1

crabgrass = test: Test B pre/postemergence crabgrass; type: in vivo, Digitaria sanguinalis
Procedure, shortened: as §1

pigweed = test: Test B pre/postemergence pigweed; type: in vivo, Amaranthus retroflexus
Procedure, shortened: as §1

cocklebur = test: Test B pre/postemergence cocklebur; type: in vivo, Xanthium strumarium
Procedure, shortened: as §1

wild oat = test: Test B pre/postemergence wild oat; type: in vivo, Avena fatua
Procedure, shortened: as §1

rape = test: Test B pre/postemergence rape; type: in vivo, Brassica napus
Procedure, shortened: as §1

velvetleaf = test: Test B pre/postemergence velvetleaf; type: in vivo, Abutilon theophrasti
Procedure, shortened: as §1

sugar beet = test: Test B pre/postemergence sugar beet; type: in vivo, Beta vulgaris
Procedure, shortened: as §1

[1] = Postemergence, Rate 62 g/ha, scale 0 to 10, 0 is no effect, 10 is complete control
[2] = Postemergence, Rate 125 g/ha, scale of 0 to 10 where 0 is no effect and 10 is complete control
[3] = Preemergence, Rate 125 g/ha, scale of 0 to 10 where 0 is no effect and 10 is complete control
[4] = Preemergence, Rate 250 g/ha, scale 0 (no effect) to 10 (complete control)
[5] = Rate 250 g/ha, Postemergence, scale 0 to 10, 0 is no effect, 10 is complete control
[6] = Rate 500 g/ha, Postemergence, scale 0 to 10, 0 is no effect, 10 is complete control
[7] = Rate 500 g/ha, Preemergence, scale 0 to 10 (0 no effect, 10 complete control)
[8] = Rate 62 g/ha, Preemergence, scale 0 to 10

Cc1nc(C(C)n2c(=O)on(C(=O)N(c3ccccc3)C(C)C)c2=O)sc1C (stereo not shown) [Compound 756]
Plant response rating, B. signalgrass (surinam grass; [1]): 0
B. signalgrass plant response rating (surinam grass; [2]): 0
B. signalgrass plant response rating (surinam grass; Preemergence, Rate 62 g/ha, scale of 0 to 10 where 0 is no effect and 10 is complete control): 0
Plant response rating, B. signalgrass (surinam grass; [3]): 0
B. signalgrass plant response rating (surinam grass; [4]): 0
B. signalgrass plant response rating (surinam grass; [5]): 0
B. signalgrass plant response rating (surinam grass; [6]): 2
B. signalgrass plant response rating (surinam grass; [7]): 3
Plant response rating, Soybean (soybean; [1]): 2
Plant response rating, Soybean (soybean; [3]): 0
Soybean plant response rating (soybean; [4]): 0
Soybean plant response rating (soybean; [8]): 0
Soybean plant response rating (soybean; [5]): 2
Soybean plant response rating (soybean; [6]): 2
Soybean plant response rating (soybean; [7]): 0
Plant response rating, Blackgrass (blackgrass; [1]): 0
Blackgrass plant response rating (blackgrass; [2]): 0
Plant response rating, Blackgrass (blackgrass; [3]): 2
Blackgrass plant response rating (blackgrass; [4]): 4
Blackgrass plant response rating (blackgrass; [8]): 0
Blackgrass plant response rating (blackgrass; [5]): 0
Blackgrass plant response rating (blackgrass; [6]): 3
Blackgrass plant response rating (blackgrass; [7]): 7
Plant response rating, Bedstraw (bedstraw; [1]): 0
Bedstraw plant response rating (bedstraw; [2]): 0
Plant response rating, Bedstraw (bedstraw; [3]): 0
Bedstraw plant response rating (bedstraw; [4]): 0
Bedstraw plant response rating (bedstraw; [8]): 0
Bedstraw plant response rating (bedstraw; [5]): 3
Bedstraw plant response rating (bedstraw; [7]): 0
Plant response rating, Giant foxtail (giant foxtail; [1]): 0
Giant foxtail plant response rating (giant foxtail; [2]): 0
Plant response rating, Giant foxtail (giant foxtail; [3]): 9
Giant foxtail plant response rating (giant foxtail; [4]): 9
Giant foxtail plant response rating (giant foxtail; [8]): 7
Giant foxtail plant response rating (giant foxtail; [5]): 0
Giant foxtail plant response rating (giant foxtail; [6]): 0
Giant foxtail plant response rating (giant foxtail; [7]): 9
Plant response rating, Corn (corn; [1]): 0
Corn plant response rating (corn; [2]): 0
Plant response rating, Corn (corn; [3]): 0
Corn plant response rating (corn; [4]): 0
Corn plant response rating (corn; [8]): 0
Corn plant response rating (corn; [5]): 0
Corn plant response rating (corn; [6]): 0
Corn plant response rating (corn; [7]): 0
Plant response rating, Wheat (wheat; [1]): 0
Plant response rating, Wheat (wheat; [3]): 0
Wheat plant response rating (wheat; [4]): 0
Wheat plant response rating (wheat; [8]): 0
Wheat plant response rating (wheat; [5]): 0
Wheat plant response rating (wheat; [6]): 0
Wheat plant response rating (wheat; [7]): 0
Plant response rating, Morningglory (morningglory; [1]): 4
Morningglory plant response rating (morningglory; [2]): 7
Plant response rating, Morningglory (morningglory; [3]): 0
Morningglory plant response rating (morningglory; [4]): 0
Morningglory plant response rating (morningglory; [8]): 0
Morningglory plant response rating (morningglory; [5]): 10
Morningglory plant response rating (morningglory; [6]): 10
Morningglory plant response rating (morningglory; [7]): 0
Plant response rating, Nutsedge (purple nutsedge; [1]): 0
Nutsedge plant response rating (purple nutsedge; [2]): 0
Plant response rating, Nutsedge (purple nutsedge; [3]): 0
Nutsedge plant response rating (purple nutsedge; [4]): 0
Nutsedge plant response rating (purple nutsedge; [5]): 0
Nutsedge plant response rating (purple nutsedge; [6]): 0
Nutsedge plant response rating (purple nutsedge; [7]): 7
Plant response rating, Crabgrass (crabgrass; [1]): 0
Crabgrass plant response rating (crabgrass; [2]): 0
Plant response rating, Crabgrass (crabgrass; [3]): 9
Crabgrass plant response rating (crabgrass; [4]): 9
Crabgrass plant response rating (crabgrass; [8]): 4
Crabgrass plant response rating (crabgrass; [5]): 0
Crabgrass plant response rating (crabgrass; [6]): 3
Crabgrass plant response rating (crabgrass; [7]): 9
Plant response rating, Redroot pigweed (pigweed; [1]): 0
Redroot pigweed plant response rating (pigweed; [2]): 0
Plant response rating, Redroot pigweed (pigweed; [3]): 0
Redroot pigweed plant response rating (pigweed; [4]): 0
Redroot pigweed plant response rating (pigweed; [8]): 0
Redroot pigweed plant response rating (pigweed; [5]): 0
Redroot pigweed plant response rating (pigweed; [6]): 3
Redroot pigweed plant response rating (pigweed; [7]): 0
Plant response rating, Cocklebur (cocklebur; [1]): 0
Cocklebur plant response rating (cocklebur; [2]): 0
Plant response rating, Cocklebur (cocklebur; [3]): 0
Cocklebur plant response rating (cocklebur; [4]): 0
Cocklebur plant response rating (cocklebur; [8]): 0
Cocklebur plant response rating (cocklebur; [5]): 0
Cocklebur plant response rating (cocklebur; [6]): 0
Cocklebur plant response rating (cocklebur; [7]): 0
Plant response rating, Wild oats (wild oat; [1]): 0
Plant response rating, Wild oats (wild oat; [3]): 0
Wild oats plant response rating (wild oat; [4]): 0
Wild oats plant response rating (wild oat; [8]): 0
Wild oats plant response rating (wild oat; [5]): 0
Wild oats plant response rating (wild oat; [6]): 0
Wild oats plant response rating (wild oat; [7]): 0
Plant response rating, Rape (rape; [1]): 0
Rape plant response rating (rape; [2]): 0
Plant response rating, Rape (rape; [3]): 0
Rape plant response rating (rape; [4]): 0
Rape plant response rating (rape; [8]): 0
Rape plant response rating (rape; [5]): 0
Rape plant response rating (rape; [6]): 3
Rape plant response rating (rape; [7]): 0
Plant response rating, Velvetleaf (velvetleaf; [1]): 0
Plant response rating, Velvetleaf (velvetleaf; [3]): 0
Velvetleaf plant response rating (velvetleaf; [4]): 0
Velvetleaf plant response rating (velvetleaf; [8]): 0
Velvetleaf plant response rating (velvetleaf; [5]): 0
Velvetleaf plant response rating (velvetleaf; [6]): 0
Velvetleaf plant response rating (velvetleaf; [7]): 0
Plant response rating, Sugarbeets (sugar beet; [1]): 0
Plant response rating, Sugarbeets (sugar beet; [3]): 0
Sugarbeets plant response rating (sugar beet; [4]): 0
Sugarbeets plant response rating (sugar beet; [8]): 0
Sugarbeets plant response rating (sugar beet; [5]): 0
Sugarbeets plant response rating (sugar beet; [6]): 0
Sugarbeets plant response rating (sugar beet; [7]): 0
